# Laboratory results published in patent publication US6774263B1, “Pharmaceutically active compound and methods of use” (Cambridge Neuroscience, Inc., priority 1997, dated 2004).
# Where a name gives a salt, the structure may show the parent alone.
# How the values were obtained:
# rats [1] = test: Rat MCAO ischemia model; type: in vivo; settings: in thirds at 10 min, 1 h and 2 h
# Protocol: A. The hydrochloride salt of (±)-N-(2-chloro-5-methylthiophenyl)-N′-(3-methylsulfinylphenyl)-N′-methylguanidine (compound (I)) was tested in the rat MCAO ischemia model with % reduction in total lesion volume (mm^3) determined by the following protocol.
# Rats were anaesthetized with isoflurane and focal ischemia was induced by directly ligating the main trunk of MCA using a bipolar electrocoagulor. Coronal sections (seven sections, 2.0 mm intervals) were collected and incubated in 2,3,5-triphenyltetrazolium chloride (TTC) solution for 15 minutes at 37° C., then fixed in 4% paraformaldehyde solution in the dark at 4° C. for at least 48 hours. Seven sections of each brain were photographed and analyzed. The areas that were not stained red with TTC were measured as infarction.
# The test animals were treated with the test compound and control (mannitol) as follows. Ten minutes after the MCAO incident the test animals were administered (i.v. infusion/10 minutes) with one third of the total dose of the test compound (total doses specified below); 1 hour after that first dosing the test animals were given another one third of the total dose of the test compound; and then 2 hours after that first dosing the test animals were given another one third of the total dose of the test compound. Mannitol was administered to the control group at the first dosing only.
# Sprague-Dawley rats with body weights of 270-320 grams were used in the study.
# rats [2] = test: Irwin general behavior screen; type: in vivo, rat; settings: times in minutes
# Source text: See S. Irwin, Animal and Clinical Pharmacologic Techniques in Drug Evaluation, pages 36-54 (Year Book Medical Publishers, Chicago), which details the protocol of the Irwin behavior screen.
# rat pups = test: Rat pup hypoxia-ischemia model; type: in vivo
# Protocol: A. The hydrochloride salt of (±)-N-(2-chloro-5-methylthiophenyl)-N′-(3-methylsulfinylphenyl)-N′-methylguanidine was tested in the rat pup hypoxia-ischemia model with % reduction in total lesion volume determined at the specified test dose. A rat pup hypoxia-ischemia assay protocol of the following protocol was employed.
# 8 day-old rat pups weighing 17-23 grams were anaesthetized with isoflurane and the left common carotid artery ligated. Immediately prior to the hypoxia-ischemia (H-I) insult a test group of animals was injected intraperitoneally with 2 mg/kg, 5 mg/kg or 10 mg/kg of the test compound and a control group was treated with a corresponding dose of mannitol. Then, immediately after the H-I insult, the animals received a second equivalent dose, i.e. the test group of animals was injected intraperitoneally with 2 mg/kg (total 4 mg/kg administered in the two doses), 5 mg/kg (total 10 mg/kg administered in the two doses) or 10 mg/kg (total 20 mg/kg administered in the two doses) of the test compound and a control group was treated with a corresponding dose of mannitol. The animals were then allowed to recover for 1-2 hours and then exposed to 7.8% O2 in nitrogen for 78 minutes in an incubator at 36.5° C. The rat pups were returned to mothers immediately after the H-I insult. The animals were sacrificed two days after H-I insult, their brain was removed and cut into four 2 mm thick slices prior to staining with 2% 2,3,5-triphenyltetrazolium chloride (TTC) solution. The sections were then fixed with 4% paraformaldehyde solution in the dark at 4° C. for at least 48 hours. Four sections from each brain were imaged and analyzed using the IPLab system. The lesion area which was not stained red with TTC was measured as infarction.
# B. The acetate salt of (+)-N-(2-chloro-5-methylthiophenyl)-N′-(3-methylsulfinylphenyl)-N′-methylguanidine was also tested in the rat pup hypoxia-ischemia model with % reduction in total lesion volume determined by the same protocol as specified in Part A above, except the rat pups were exposed to 7.8% O2 in nitrogen for 85 minutes.
# rats [3] = test: Rat rotarod motor coordination test; type: in vivo
# Protocol: The effects of the hydrochloride salt of (t)-N-(2-chloro-5-methylthiophenyl)-N′-(3-methylsulfinylphenyl)-N′-methylguanidine (compound (I)) on motor coordination were assessed using the rotarod test. Drug solutions were administered i.v. through the tail vein of test rats in a volume of 5.0 ml/kg at a rate of 1 ml/min. The percentage of animals in each treatment group that fell from the rotarod at each of the four time points tested is summarized in the following Table I. Control was 20% C.D. N in each of the Tables below specifies the number of animals in each test group.
# The latency for falling from the rotarod was statistically analyzed using analysis of variance (ANOVA), and a Neumann Keuls post-hoc was applied when appropriate. […] In FIG. 1, “**” designates P<0.01 and “***” designates P<0.001.
# (§1) The acetate salt of (−)-N-(2-chloro-5-methylthiophenyl)-N′-(3-methylsulfinylphenyl)-N′-methylguanidine was also tested in the same rotarod assay protocol as described in Part A above. Drug solutions were administered i.v. through the tail vein in a volume of 5 ml/kg at a rate of 1 ml/min. In Table II, Control (1) is 60 mM Acetate Buffer in 0.3M mannitol at 0.06 and 0.125 mg/kg doses and Control (2) is 60 mM Acetate Buffer in 0.3M mannitol at 0.25 and 0.5 mg/kg doses.
# as §1, with “(+)-N-(2-chloro-5-methylthiophenyl)-N′-(3-methylsulfinylphenyl)-N′-methylguanidine” for “(−)-N-(2-chloro-5-methylthiophenyl)-N′-(3-methylsulfinylphenyl)-N′-methylguanidine”, “III,” for “II,”
# The results for compounds of the invention can be compared to those obtained for MK-801, i.e. (+)-5-methyl-10,11-dihydro-5H-dibenzo[a,d]cyclohepten-5,10-imine maleate. In the rotarod test for MK-801, drug solutions were administered i.v. through the tail vein of each test rat in a volume of 5 ml/kg at a rate of 1 ml/min. The control was 0.9% saline solution.
# [4] = cited from earlier work
# mouse = settings: in vivo; cited from earlier work
# [5] = total dose 2.25 mg/kg i.v. infusion
# [6] = total dose 4.5 mg/kg i.v. infusion, 4.5 mg/kg
# [7] = total dose 9 mg/kg i.v. infusion, 9 mg/kg
compound,measurement,setting,value
"CSc1ccc(Cl)c(NC(=N)N(C)c2cccc([S+](C)[O-])c2)c1 (racemic) [compound (I), N-(2-chloro-5-methylthiophenyl)-N′-(3-methylsulfinylphenyl)-N′-methylguanidine]",% reduction in total lesion volume,rats [1]; [5],24%
same,% reduction in total lesion volume,rats [1]; total dose 4.5 mg/kg i.v. infusion,32%
same,% reduction in total lesion volume,rats [1]; total dose 9 mg/kg i.v. infusion,46%
same,behavioral effects observed in Irwin screen,rats [2]; 4 mg/kg i.v.,"excitation (120-180′) sterotypies (sniffing 60-180′) fore-paw treading (120′) loss of traction (2 of 3, 120′)"
same,behavioral effects observed in Irwin screen,rats [2]; 16 mg/kg i.v.,excitation (30-180′) sterotypies (head-weaving to 180′) fore-paw treading (to 180′) loss of traction (to 180′) hypothermia
same,% reduction in total lesion volume,"rat pups; i.p. total dose of 10 mg/kg, 7.8% O2 for 78 minutes",60%
same,% reduction in total lesion volume,"rat pups; i.p. total dose of 20 mg/kg, 7.8% O2 for 78 minutes",100%
same,lethality of pre-testing doses,"rats [3]; rat, in vivo",lethal
"CSc1ccc(Cl)c(NC(=N)N(C)c2cccc([S+](C)[O-])c2)c1 (single isomer, unassigned; (+)) [compound (IB), (+)-N-(2-chloro-5-methylthiophenyl)-N′-(3-methylsulfinylphenyl)-N′-methylguanidine]",% reduction in total lesion volume,rats [1]; [5],23%
same,% reduction in total lesion volume,rats [1]; [6],32%
same,% reduction in total lesion volume,rats [1]; [7],34%
same,% reduction in total lesion volume,"rat pups; i.p. total dose of 10 mg/kg, 7.8% O2 for 85 minutes",78%
same,% reduction in total lesion volume,"rat pups; i.p. total dose of 20 mg/kg, 7.8% O2 for 85 minutes",93%
same,latency for falling from the rotarod (falling times),"rats [3]; rat, in vivo",no statistically significant differences
same,latency for falling from the rotarod vs control groups,"rats [3]; rat, in vivo",significantly shorter latencies
"CSc1ccc(Cl)c(NC(=N)N(C)c2cccc([S+](C)[O-])c2)c1 (single isomer, unassigned; (-)) [compound (IA), (−)-N-(2-chloro-5-methylthiophenyl)-N′-(3-methylsulfinylphenyl)-N′-methylguanidine]",% reduction in total lesion volume,rats [1]; [6],1%
same,% reduction in total lesion volume,rats [1]; [7],22%
same,latency for falling from the rotarod (falling times),"rats [3]; rat, in vivo",no statistically significant differences
same,latency for falling from the rotarod vs control groups,"rats [3]; rat, in vivo",significantly shorter latencies
"C[C@]12N[C@H](Cc3ccccc31)c1ccccc12 [MK-801, (+)-5-methyl-10,11-dihydro-5H-dibenzo[a,d]cyclohepten-5,10-imine maleate]",results in in vivo models of stroke,[4],good results
same,activity in mouse audiogenic tests,mouse,good activity
same,percentage of animals that fell from the rotarod,"rats [3]; 0.01 mg/kg i.v., 15 min.",38%
same,percentage of animals that fell from the rotarod,"rats [3]; 0.01 mg/kg i.v., 60 min.",13%
same,percentage of animals that fell from the rotarod,"rats [3]; 0.01 mg/kg i.v., 120 min.",25%
same,percentage of animals that fell from the rotarod,"rats [3]; 0.05 mg/kg i.v., 15 min.",86%
same,percentage of animals that fell from the rotarod,"rats [3]; 0.05 mg/kg i.v., 60 min.",57%
same,percentage of animals that fell from the rotarod,"rats [3]; 0.05 mg/kg i.v., 120 min.",29%
